Measured values as given in ChEMBL document CHEMBL2029308, “Synthesis and anti-leishmanial activity of 1-aryl-β-carboline derivatives against Leishmania donovani” (Bioorg Med Chem Lett, 2012).

Columns and labels:
[1] = tested on: Leishmania donovani; test: Antileishmanial activity against Leishmania donovani MHOM/ET/67/HU3 after 72 hrs by MTT assay; format: functional, organism-based; settings: MHOM/ET/67/HU3, 72 h
[2] = Cytotoxicity against mouse peritoneal macrophages; format: cell-based, Peritoneal macrophage cell
[3] = Selectivity ratio of CC50 for mouse peritoneal macrophages to IC50 for Leishmania donovani MHOM/ET/67/HU3

SMILES	IC50 [1]	CC50 [2]	Ratio CC50/IC50 [3]
O=C(Nc1ccc(-c2nccc3c2[nH]c2ccccc23)cc1)c1ccc(F)c(F)c1	13.1 µM	> 50 µM	
Nc1ccc(-c2nccc3c2[nH]c2ccccc23)cc1	46.6 µM	> 50 µM	
C=CCCCCCCCCC(=O)Nc1ccc(-c2nccc3c2[nH]c2ccccc23)cc1	> 100 µM	> 50 µM	
O=C(Nc1ccc(-c2nccc3c2[nH]c2ccccc23)cc1)c1ccc(F)cc1F	> 100 µM	> 50 µM	
O=C(O)C1Cc2c([nH]c3ccccc23)C(c2ccc([N+](=O)[O-])cc2)N1 (stereo unspecified)	> 100 µM	> 50 µM	
O=C(Nc1ccc(-c2nccc3c2[nH]c2ccccc23)cc1)c1ccc(C(F)(F)F)cc1	> 100 µM	> 50 µM	
O=C(Nc1ccc(-c2nccc3c2[nH]c2ccccc23)cc1)c1cccc2ccccc12	> 100 µM	> 50 µM	
CCCCCCCCCCCCCC(=O)Nc1ccc(-c2nccc3c2[nH]c2ccccc23)cc1	> 100 µM	> 50 µM	
COc1ccc(C(=O)Nc2ccc(-c3nccc4c3[nH]c3ccccc34)cc2)cc1	12.3 µM	> 50 µM	
CC(=O)Nc1ccc(-c2nccc3c2[nH]c2ccccc23)cc1	2.16 µM	> 50 µM	>20
O=C(Nc1ccc(-c2nccc3c2[nH]c2ccccc23)cc1)c1ccccc1	9.68 µM	> 50 µM	
CCCCCCCCCCCC(=O)Nc1ccc(-c2nccc3c2[nH]c2ccccc23)cc1	> 100 µM	> 50 µM	
O=C(Nc1ccc(-c2nccc3c2[nH]c2ccccc23)cc1)c1cccs1	15 µM	> 50 µM	
O=C(Nc1ccc(-c2nccc3c2[nH]c2ccccc23)cc1)c1ccco1	6.38 µM	> 50 µM	
CCCCC(=O)Nc1ccc(-c2nccc3c2[nH]c2ccccc23)cc1	19.7 µM	> 50 µM	
CCCCCCCCCCCCCCCCOP(=O)([O-])OCC[N+](C)(C)C [MILTEFOSINE]	12.1 µM		
O=C(Nc1ccc(-c2nccc3c2[nH]c2ccccc23)cc1)c1ccc2ccccc2c1	8.84 µM	> 50 µM	
O=C(/C=C/c1ccccc1)Nc1ccc(-c2nccc3c2[nH]c2ccccc23)cc1	7.7 µM	> 50 µM	
CC(C)(C)c1ccc(C(=O)Nc2ccc(-c3nccc4c3[nH]c3ccccc34)cc2)cc1	> 100 µM	> 50 µM	
Cc1cc(C(=O)Nc2ccc(-c3nccc4c3[nH]c3ccccc34)cc2)c(C)o1	30.1 µM	> 50 µM	
N#Cc1ccc(C(=O)Nc2ccc(-c3nccc4c3[nH]c3ccccc34)cc2)cc1	5.31 µM	> 50 µM	
Cc1ccc(C(=O)Nc2ccc(-c3nccc4c3[nH]c3ccccc34)cc2)cc1	14.3 µM	> 50 µM	
O=[N+]([O-])c1ccc(-c2[nH]ccc3c4ccccc4nc2-3)cc1	> 100 µM	> 50 µM	
